Measured values as given in patent US20120270237A9, “METHODS FOR THE IDENTIFICATION OF KINASE INTERACTING MOLECULES AND FOR THE PURIFICATION OF KINASE PROTEINS” (Cellzone AG, priority 2009, published 2012).

Tests used:
Details in all cases: 10 μM free compound
[1] = target: SYK (Homo sapiens, UniProt P43405); experiment: Kinobeads competition binding, HL60 cell lysate; parameters: capturing and identification of kinases from mixed HeLa placenta lysates; endogenous in cells
Experimental: (§1) To one aliquot of cell lysate 10 μM of the free compound (FIG. 3, CZC31326) was added and allowed to bind to proteins in the lysate. Then the affinity matrix with the immobilized compound (Example 1) was added to capture proteins that were not interacting with the previously added free compound. Beads were separated from the lysate and bead bound proteins were eluted in SDS sample buffer and subsequently separated by SDS-Polyacrylamide gel electrophoresis (FIG. 4). Suitable gel bands were cut out and subjected to in-gel proteolytic digestion with trypsin. The second lysate aliquot was processed identically, however no free compound was added (DMSO solvent control). Peptides originating from samples 1 and 2 were labeled with iTRAQ reagents (iTRAQ 114 and iTRAQ 117) and the combined samples were analyzed with a nano-flow liquid chromatography system coupled online to a tandem mass spectrometer (LC-MS/MS) experiment followed by iTRAQ reporter ion quantification in the MS/MS spectra (Ross et al., 2004. Mol. Cell. Proteomics 3(12):1154-1169). […] The iTRAQ reagents are a set of multiplexed, amine-specific, stable isotope reagents that can label peptides on amino groups in up to four different biological samples enabling simultaneous identification and quantitation of peptides. […]

[2] = target: Wee1 (Homo sapiens, UniProt P30291); experiment: Kinobeads competition binding, HeLa Placenta lysate mix; parameters: kinases from mixed HeLa placenta lysates; endogenous in cells; host or cells: mixed lysate of HeLa cells and placenta tissue
Chain of Wee1 (P30291 whole entry): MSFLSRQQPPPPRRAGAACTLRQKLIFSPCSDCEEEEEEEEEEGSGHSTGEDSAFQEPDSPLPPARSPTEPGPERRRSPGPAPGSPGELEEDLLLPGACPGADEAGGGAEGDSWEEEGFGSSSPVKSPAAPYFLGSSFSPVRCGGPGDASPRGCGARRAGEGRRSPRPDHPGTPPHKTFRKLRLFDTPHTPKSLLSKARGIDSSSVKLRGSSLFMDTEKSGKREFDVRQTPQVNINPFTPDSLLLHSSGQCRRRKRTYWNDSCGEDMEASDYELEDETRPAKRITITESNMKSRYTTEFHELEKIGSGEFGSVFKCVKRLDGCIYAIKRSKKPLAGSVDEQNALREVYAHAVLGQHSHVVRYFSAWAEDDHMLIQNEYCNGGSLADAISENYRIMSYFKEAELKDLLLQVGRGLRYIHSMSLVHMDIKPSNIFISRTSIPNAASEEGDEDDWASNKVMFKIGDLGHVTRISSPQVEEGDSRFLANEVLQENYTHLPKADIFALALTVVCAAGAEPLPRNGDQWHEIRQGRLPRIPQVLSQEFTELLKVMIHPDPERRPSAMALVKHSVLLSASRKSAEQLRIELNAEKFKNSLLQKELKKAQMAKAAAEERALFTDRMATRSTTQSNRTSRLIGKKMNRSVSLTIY
Experimental: (§2) To one aliquot of cell lysate 10 μM of the free compound (FIG. 3, CZC31326) was added and allowed to bind to proteins in the lysate. Then the affinity matrix with the immobilized compound was added to capture proteins that were not interacting with the previously added free compound. Beads were separated from the lysate and bead bound proteins were eluted in SDS sample buffer and subsequently separated by SDS-Polyacrylamide gel electrophoresis (FIG. 10). Suitable gel bands were cut out and subjected to in-gel proteolytic digestion with trypsin. The second lysate aliquot was processed identically, however no free compound was added (DMSO solvent control). Peptides originating from samples 1 and 2 were labeled with iTRAQ reagents (iTRAQ 114 and iTRAQ 117) and the combined samples were analyzed with a nano-flow liquid chromatography system coupled online to a tandem mass spectrometer (LC-MS/MS) experiment followed by iTRAQ reporter ion quantification in the MS/MS spectra as described in Example 2.

[3] = target: T1, ULK3 (Homo sapiens, UniProt Q6PHR2); experiment: as above; parameters: kinases from mixed HeLa placenta lysates; endogenous in cells; host or cells: mixed lysate of HeLa cells and placenta tissue
T1 sequence (Q6PHR2 1-472): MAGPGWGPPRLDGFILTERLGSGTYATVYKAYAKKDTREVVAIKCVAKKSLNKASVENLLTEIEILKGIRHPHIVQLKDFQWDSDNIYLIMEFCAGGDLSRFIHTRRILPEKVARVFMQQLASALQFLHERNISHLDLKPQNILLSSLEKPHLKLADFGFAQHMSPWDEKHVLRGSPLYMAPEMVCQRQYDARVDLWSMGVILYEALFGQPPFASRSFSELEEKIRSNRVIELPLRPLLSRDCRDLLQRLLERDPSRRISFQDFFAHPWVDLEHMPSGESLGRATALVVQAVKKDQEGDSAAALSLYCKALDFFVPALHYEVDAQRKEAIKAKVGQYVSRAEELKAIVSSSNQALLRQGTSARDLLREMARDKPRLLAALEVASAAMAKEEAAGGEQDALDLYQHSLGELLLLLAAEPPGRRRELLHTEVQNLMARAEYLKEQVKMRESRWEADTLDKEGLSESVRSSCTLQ
Experimental: as §2

[4] = target: TGFbR1 (Homo sapiens, UniProt P36897); experiment: as above; parameters: kinases from mixed HeLa placenta lysates; endogenous in cells; host or cells: mixed lysate of HeLa cells and placenta tissue
Chain of TGFbR1 (P36897 34-503): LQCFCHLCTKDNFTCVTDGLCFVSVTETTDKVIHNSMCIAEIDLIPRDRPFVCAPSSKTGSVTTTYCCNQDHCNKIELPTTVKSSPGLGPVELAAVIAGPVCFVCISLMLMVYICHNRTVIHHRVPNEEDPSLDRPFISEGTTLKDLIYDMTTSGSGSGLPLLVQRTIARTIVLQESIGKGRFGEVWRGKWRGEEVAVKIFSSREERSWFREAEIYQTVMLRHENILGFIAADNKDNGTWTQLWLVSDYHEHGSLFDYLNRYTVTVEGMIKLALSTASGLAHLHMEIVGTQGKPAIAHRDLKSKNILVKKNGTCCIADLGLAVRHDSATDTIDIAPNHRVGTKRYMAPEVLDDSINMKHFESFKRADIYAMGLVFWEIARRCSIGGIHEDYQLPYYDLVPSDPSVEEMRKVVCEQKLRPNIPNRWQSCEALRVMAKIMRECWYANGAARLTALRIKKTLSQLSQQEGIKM
Experimental: as §2

[5] = system: PITSLRE; experiment: Kinobeads competition binding, HL60 cell lysate; parameters: species or system human
Experimental: as §1

Competition % [1]: 95.6%
inhibition at 10 µM [2]: 95.2%
Competition % [3]: 94.6%
inhibition at 10 µM [4]: 90.8%
Compound: CS(=O)(=O)Nc1ccccc1Nc1nc(Nc2cccc(OCCN)c2)ncc1Cl [CZC31326, N-(2-(2-(3-(2-aminoethoxy)phenylamino)-5-chloropyrimidin-4-ylamino)phenyl)methanesulfonamide]
Competition % [5]: 94.8%
